This is an account of results in patent publication US10632116B2, “Combinations of serotonin receptor agonists for treatment of movement disorders” (Contera Pharma A/S, priority 2010, dated 2020).

Molecules are shown by their SMILES.

Series [1] concerns 6-OHDA unilateral lesion model rats. Briefly: Forepaw adjusting steps (FAS), 6-OHDA induced akinesia. In kind it is in vivo, rat. To be noted: first study; acute L-DOPA 3 mg/kg with 15 mg/kg benserazide s.c.
Description: Animals: 60 Sprague-Dawley male rats (290 g-340 g, bought from SLAC Laboratory Animal Co. Ltd at an age of 8-10 weeks). Rats were housed in groups of n=2/cage. […] Animal housing and testing rooms were maintained under controlled environmental conditions and were within close proximity of each other. Animal housing rooms were on a 12-hour light-dark cycle with lights on at 6:00 AM and maintained at 70° F./21° C. (range: 68-72° F./20-22° C.) with a humidity range of 20-40%. Testing rooms were maintained at 68-72° F. with a humidity range of 20-40%.
Dopamine (DA)-denervating lesions were performed by unilateral injection of 6-OHDA in the median forebrain bundle containing the ascending nigrostraital pathway. Rats were anesthetized with pentobarbital sodium 40 mg/kg (i.p.) and positioned in a stereotactic frame. 6-OHDA was injected at the following coordinates (in mm) relative to bregma and dural surface: Tooth bar: −3.3 mm, AP: −1.8 mm, ML: −2.0 mm, DV: −8.6 mm (18 μg/6 μl 6-OHDA). […]
After recovery from surgery, rats with nearly complete (>90%) lesions were selected by means of an apomorphin-induced rotation test. […] Quantification of the rotational response was accomplished in rats by counting the turns in 30 minutes. […]
Each baseline adjusting step test consisted of two subtests of the day and the mean of the two subtests were calculated as baseline. […]
Series [2] has as its system Parkinson's disease. To be noted: doses 10-60 mg/day; cited from earlier work.
The subject of series [3] is unilaterally 6-OHDA-lesioned rats. Briefly: L-DOPA induced AIMs and drugs screening test (6-OHDA rat model). The series is classed as in vivo.
Series [4] concerns Sprague-Dawley (SD) rats. Briefly: Rotarod test (Example V, sedation/motor performance). In kind it is in vivo, rat. To be noted: FIG. 2; pentobarbital 15 mg/kg i.p., 30 min before test; positive control. An excerpt:
The present study describes the evaluation of zolmitriptan and buspirone in the 6-OHDA rat model in a study using the rotarod test. Using this study, a treatment with combination of compounds according to the present invention can be evaluated for their sedative effects, and/or their effects on the motor performance compared to sedated rats and to rats which only had saline injections.
In brief, the animals (30 SD male rats (180-220 g, bred in house, originally from SLAC Laboratory Animal Co. Ltd) at 9-week of age) were trained twice a day for a 3-day period. […] Each training trial was ended if the animal fell off or grips the device and spun around for two consecutive revolutions. The time that rat stayed on the Rotarod was recorded. The staying duration recorded at last training trail was used as baseline. Rats were grouped according a randomly distribution of baseline.
For the test session on the fourth day, the rats were evaluated on the Rotarod with the same setting as above at 30 min after dosing. The rats were dosed with drugs as described below. Dosing and Rotarod measurement were conducted by two scientists separately. Pentobarbital (15 mg/kg. i.p.) was used a as a positive control.
(§1) Vehicle: Saline, i.p., 30 min before test, n=10
(§2) Positive control: Pentobarbital 15 mg/kg, i.p. 30 min before test, n=10 […]
The data were analyzed using One-Way ANOVA and the Tukey post-hoc test.

Series [5] relates to naïve rats. As to the kind of experiment: Open field test (Example VI, locomotor activity). In kind it is in vivo, rat. To be noted: FIG. 3; pentobarbital 15 mg/kg i.p., 30 min before test; positive control.
Description: The present study describes the evaluation of zolmitriptan and buspirone in the 6-OHDA rat model. Using this study, a treatment with combination of compounds according to the present invention can be evaluated for their sedative effects, and/or their effects on the motor performance compared to sedated rats and to rats which only had saline injections.
The open field test was used to determine the effects of drug on locomotor activity. Rats were put in open-field chambers (dimensions 40 cm×40 cm) 30 minutes after dosing. After a 15 minutes habituation, locomotion were recorded and analysed by Enthovision Video Tracking Software (Noldus Information Technology, Netherlands) for 60 minutes. All locomotor activities were done during dark phase and to eliminate olfactory cues, the arena was thoroughly cleaned with 70% v/v ethanol between each test.
as §1, §2
Statistical analysis: The total locomotor activity is expressed as total moved distance (cm) and average velocity (cm/s) during 60 minutes. The data were analysed using One-Way ANOVA and the Tukey post-hoc test. The locomotor activity in six time point is expressed as moved distance (cm) and average velocity (cm/s) every 10 minutes. The data were analysed using One-Way ANOVA and the Tukey post-hoc test in each time point.

The test system of series [6] is Huntington's disease. To be noted: patient suffering from Huntington's disease; cited from earlier work.
The test system of series [7] is L-DOPA induced dyskinesia. The conditions noted are these: cited from earlier work.

Turning to `N[C@@H](Cc1ccc(O)c(O)c1)C(=O)O` [L-DOPA, 3,4-dihydroxyphenylalanine], the “6-OHDA induced akinesia (forelimb use)” value in series [1] is given as “alleviated 6-OHDA induced akinesia”.

As for `O=C1CC2(CCCC2)CC(=O)N1CCCCN1CCN(c2ncccn2)CC1` [buspirone, 8-[4-(4-pyrimidin-2-ylpiperazin-1-yl)butyl]-8-azaspiro[4.5]decane-7,9-dione], in series [2], the “effects on Parkinson's disease or dyskinesia” value is “did not have any effects”. In addition, the “L-DOPA induced AIM (Total AIMs)” value in series [3] (Example IV, FIG. 1, buspirone alone 1 mg/kg/day i.p.) was “only partly reduced AIM”; in series [3] (Example VII, FIG. 4, buspirone alone 0.5 mg/kg i.p.) it was “only partly reduced AIM”.

On to `CCCC(C)C1(CC)C(=O)NC(=O)NC1=O` (stereo not shown) [pentobarbital], for which the “rotarod performance (time spent on the accelerating rod)” value in series [4] was “significantly reduced time spend on the rotarod”. Besides, the “open field test motor performance” value in series [5] is on record as “significantly reduced motor performance”.

On to `O=C1[C@H]2CCCC[C@H]2C(=O)N1CCCCN1CCN(c2nsc3ccccc23)CC1` [perospirone, (3 aR,7aS)-2-{4-[4-(1,2-benzisothiazol-3-yl)piperazin-1-yl]butyl}hexahydro-1H-isoindole-1,3(2H)-dione], for which the involuntary movement entry in series [6] was “could reduce involuntary movement”.

`Fc1ccc(-c2cncc(CNC[C@H]3CCc4ccccc4O3)c2)cc1` [sarizotan, 1-[(2R)-3,4-dihydro-2H-chromen-2-yl]-N-([5-(4-fluorophenyl)pyridin-3-yl]-methyl)methanamine]: the LID result in series [7] (phase 2A study and open labeled study) was “reduced LID”. Moreover, the “effects compared to placebo” value in series [7] (several large phase 2b studies) is “no significant effects”.

As to `CN(C)CCc1c[nH]c2ccc(C[C@H]3COC(=O)N3)cc12` [zolmitriptan, (S)-4-([3-[2-(dimethylamino)ethyl]-1H-indol-5-yl]methyl)-1,3-oxazolidin-2-one], the “L-DOPA induced AIM (Total AIMs)” value in series [3] (Example IV, FIG. 1, zolmitriptan alone 10 mg/kg/day) is “did not reduce AIM”.
